Legend:
stromelysin (MMP-3) = biological target: T1, stromelysin (MMP-3) (Homo sapiens, UniProt P08254); assay: Enzyme inhibition of the catalytic domain of human stromelysin (fluorogenic substrate); type: biochemical; conditions: 15 min preincubation, pH=6.5, fluorescence 328 nm (ex)/393 nm (em)
T1 construct: enzymatic activity of the catalytic domains of human stromelysin and of neutrophil collagenase; made in house
Summary of the method: (§1)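 Recombinant catalytic domains of MMP-3 or MMP-8 were preincubated 15 min with compound in Tris/NaCl/CaCl2/PIPES buffer with 0.05% Brij, pH 6.5. Reaction was started with Mca-Pro-Leu-Gly-Leu-Dpa-Ala-Arg-NH2 and followed by fluorescence (328/393 nm) as rate per min; IC50 was the concentration giving 50% inhibition.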

[1] = biological target: T2, neutrophil collagenase (MMP-8) (Homo sapiens, UniProt P22894); assay: Enzyme inhibition of the catalytic domain of neutrophil collagenase (fluorogenic substrate); type: biochemical; conditions: 15 min preincubation, pH=6.5, fluorescence 328 nm (ex)/393 nm (em)
T2 construct: enzymatic activity of the catalytic domains of human stromelysin and of neutrophil collagenase; made in house
T2 sequence (P22894 100-262 limits assumed): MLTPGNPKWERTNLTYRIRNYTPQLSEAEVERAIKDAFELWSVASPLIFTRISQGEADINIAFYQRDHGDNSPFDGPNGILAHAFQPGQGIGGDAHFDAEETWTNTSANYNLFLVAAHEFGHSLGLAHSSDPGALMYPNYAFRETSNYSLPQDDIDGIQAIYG
Summary of the method: as §1

T1 sequence (P08254 100-272 limits assumed): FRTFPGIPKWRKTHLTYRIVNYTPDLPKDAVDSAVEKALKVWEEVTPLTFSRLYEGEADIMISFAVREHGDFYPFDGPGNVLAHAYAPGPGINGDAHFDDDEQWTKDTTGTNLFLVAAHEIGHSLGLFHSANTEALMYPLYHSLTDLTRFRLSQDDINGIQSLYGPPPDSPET

Row | Compound | melting point [°C] | IC50 (stromelysin (MMP-3)) [nM] | IC50 [1] [nM]
1 | O=C(O)C(CCN1C(=O)c2ccccc2C1=O)NS(=O)(=O)c1ccc(-c2ccccc2)cc1 (racemic) [Example 27] | 176 |  | 
2 | Cc1cc(C)nc(NCCC[C@H](NS(=O)(=O)c2ccc(-c3ccccc3)cc2)C(=O)O)n1 [Example 169] | 226 to 227 |  | 
3 | O=C(NCCC[C@H](NS(=O)(=O)c1ccc(-c2ccc(Cl)cc2)cc1)C(=O)O)c1ccc(C(F)(F)F)cc1 [Example 72] |  | 20 | 6
4 | O=C(CCCc1ccccc1)NCCC[C@H](NS(=O)(=O)c1ccc(-c2ccc(Cl)cc2)cc1)C(=O)O [Example 157] |  | 40 | 7
5 | O=C(NCCC[C@H](NS(=O)(=O)c1ccc(-c2ccc(Cl)cc2)cc1)C(=O)O)c1ccccn1 [Example 50] |  | 6 | 2
6 | O=C(NCCC[C@H](NS(=O)(=O)c1ccc(-c2ccccc2)cc1)C(=O)O)c1ccccc1O [Example 45] |  | 20 | 4
7 | CC(C)(C)OC(=O)NCCC[C@H](NS(=O)(=O)c1ccc(-c2ccc(Cl)cc2)cc1)C(=O)O [Example 14] |  | 5 | 3
8 | O=C(NCCC[C@H](NS(=O)(=O)c1ccc(-c2ccc(Cl)cc2)cc1)C(=O)O)c1ccc(O)cc1 [Example 102] |  | 20 | 5
9 | C[C@@H]1NC(=O)N(CCC[C@H](NS(=O)(=O)c2ccc(-c3ccc(Cl)cc3)cc2)C(=O)O)C1=O [Example 77] |  | 10 | 2
10 | N/C(=N\[N+](=O)[O-])NCCC[C@@H](NS(=O)(=O)c1ccc(-c2ccc(Cl)cc2)cc1)C(=O)O [Example 26] |  | 60 | 7
11 | O=C(NCCC[C@H](NS(=O)(=O)c1ccc(-c2ccc(Cl)cc2)cc1)C(=O)O)c1ccc(C(F)(F)F)cc1F [Example 109] |  | 20 | 7
12 | O=C(NCCC[C@H](NS(=O)(=O)c1ccc(-c2ccc(Cl)cc2)cc1)C(=O)O)c1ccc2ncccc2c1 [Example 126] |  | 30 | 10
13 | O=C(O)[C@H](CCCN1C(=O)c2ccccc2S1(=O)=O)NS(=O)(=O)c1ccc(-c2ccc(Cl)cc2)cc1 [Example 134] |  | 5 | 2
14 | O=C(/C=C/c1ccc(F)cc1)NCCC[C@H](NS(=O)(=O)c1ccc(-c2ccc(Cl)cc2)cc1)C(=O)O [Example 131] |  | 20 | 5
15 | O=C(NCCC[C@H](NS(=O)(=O)c1ccc(-c2ccc(Cl)cc2)cc1)C(=O)O)c1ccco1 [Example 99] |  | 5 | 2
16 | O=C(NCCC[C@H](NS(=O)(=O)c1ccc(-c2ccc(Cl)cc2)cc1)C(=O)O)c1cc(F)cc(F)c1 [Example 93] |  | 20 | 4
17 | Cc1ccc(S(=O)(=O)NC(=N)NCCC[C@@H](NS(=O)(=O)c2ccc(-c3ccc(Cl)cc3)cc2)C(=O)O)cc1 [Example 22] |  | 80 | 80
18 | O=C(CC[C@@H](C(=O)O)c1ccccc1)NCCC[C@H](NS(=O)(=O)c1ccc(-c2ccc(Cl)cc2)cc1)C(=O)O [Example 80] |  | 10 | 3
19 | CC(C)COC(=O)NCCC[C@H](NS(=O)(=O)c1ccc(-c2ccc(Cl)cc2)cc1)C(=O)O [Example 118] |  | 10 | 4
20 | O=C(NCCC[C@H](NS(=O)(=O)c1ccc(-c2ccc(Cl)cc2)cc1)C(=O)O)c1cnccn1 [Example 19] |  | 20 | 5
21 | O=C(NCCC[C@H](NS(=O)(=O)c1ccc(-c2ccc(Cl)cc2)cc1)C(=O)O)c1ccccc1 [Example 117] |  | 9 | 2
22 | O=C(NCCC[C@H](NS(=O)(=O)c1ccc(-c2ccccc2)cc1)C(=O)O)C1CC1 [Example 161] |  | 40 | 4
23 | CC(=O)Oc1ccccc1C(=O)NCCC[C@H](NS(=O)(=O)c1ccc(-c2ccccc2)cc1)C(=O)O [Example 44] |  | 30 | 6
24 | CC(C)(C)CC(=O)NCCC[C@H](NS(=O)(=O)c1ccc(-c2ccc(Cl)cc2)cc1)C(=O)O [Example 49] |  | 20 | 3
25 | O=C(CC[C@H](C(=O)O)c1ccccc1)NCCC[C@H](NS(=O)(=O)c1ccc(-c2ccc(Cl)cc2)cc1)C(=O)O [Example 79] |  | 5 | 2
26 | CC(=O)Oc1ccccc1C(=O)NCCC[C@H](NS(=O)(=O)c1ccc(-c2ccc(Cl)cc2)cc1)C(=O)O [Example 73] |  | 4 | 2
27 | O=C(NCCC[C@H](NS(=O)(=O)c1ccc(-c2ccc(Cl)cc2)cc1)C(=O)O)c1ccccc1F [Example 88] |  | 10 | 3

Continued by falling IC50 (stromelysin (MMP-3)), values first:

Row | melting point [°C] | IC50 (stromelysin (MMP-3)) [nM] | IC50 [1] [nM] | Compound
28 |  | 70 | 10 | O=C(NCCC[C@H](NS(=O)(=O)c1ccc(-c2ccccc2)cc1)C(=O)O)c1ccccc1Cl [Example 160]
29 |  | 60 | 20 | COc1cc(Cl)cc(C(=O)NCCC[C@H](NS(=O)(=O)c2ccc(-c3ccc(Cl)cc3)cc2)C(=O)O)c1 [Example 156]
30 |  | 40 | 7 | Cc1oncc1C(=O)NCCC[C@@H](NS(=O)(=O)c1ccc(-c2ccc(Cl)cc2)cc1)C(=O)O [Example 20]
31 |  | 40 | 5 | NC(=O)NCCCC[C@@H](NS(=O)(=O)c1ccc(-c2ccc(Cl)cc2)cc1)C(=O)O [Example 23]
32 |  | 30 | 3 | CC(C)(C)OC(=O)NCCC[C@H](NS(=O)(=O)c1ccc(-c2ccccc2)cc1)C(=O)O [Example 146]
33 |  | 20 | 3 | O=C(NCCC[C@H](NS(=O)(=O)c1ccc(-c2ccc(Cl)cc2)cc1)C(=O)O)c1ccncc1 [Example 127]
34 |  | 20 | 10 | COc1ccc(C(=O)NCCC[C@H](NS(=O)(=O)c2ccc(-c3ccc(Cl)cc3)cc2)C(=O)O)cc1OC [Example 52]
35 |  | 20 | 5 | O=C(NCCC[C@H](NS(=O)(=O)c1ccc(-c2ccc(Cl)cc2)cc1)C(=O)O)c1ccc(Cl)cc1 [Example 90]
36 |  | 20 | 4 | NC(=O)C1(C(=O)NCCC[C@H](NS(=O)(=O)c2ccc(-c3ccc(Cl)cc3)cc2)C(=O)O)CC1 [Example 75]
37 |  | 10 | 10 | COc1ccc(S(=O)(=O)NCCC[C@H](NS(=O)(=O)c2ccc(-c3ccc(Cl)cc3)cc2)C(=O)O)cc1OC [Example 60]
38 |  | 10 | 4 | Nc1ccc(C(=O)NCCC[C@H](NS(=O)(=O)c2ccc(-c3ccc(Cl)cc3)cc2)C(=O)O)cc1 [Example 107]
39 |  | 10 | 3 | O=C(NCCC[C@H](NS(=O)(=O)c1ccc(-c2ccc(Cl)cc2)cc1)C(=O)O)c1ccccc1O [Example 74]
40 |  | 7 | 2 | O=C(O)[C@H](CCCN1C(=O)C2CSCN2C1=O)NS(=O)(=O)c1ccc(-c2ccc(Cl)cc2)cc1 (stereo partly drawn) [Example 158]
41 |  | 6 | 2 | O=C(NCCC[C@H](NS(=O)(=O)c1ccc(-c2ccc(Cl)cc2)cc1)C(=O)O)NS(=O)(=O)c1ccccc1 (single isomer, unassigned) [Example 61]
42 |  | 5 | 3 | O=C(O)[C@H](CCCN(Cc1ccccc1)C(=O)C1CC1)NS(=O)(=O)c1ccc(-c2ccc(Cl)cc2)cc1 [Example 113]
43 |  | 4 | 2 | CC1CC1C(=O)NCCC[C@H](NS(=O)(=O)c1ccc(-c2ccc(Cl)cc2)cc1)C(=O)O (stereo partly drawn) [Example 69]

From US6355673B1, “Substituted diaminocarboxylic acids” (Aventis Pharma Deutschland GmbH, priority 1997, dated 2002)
